# pIC50: −log10 of the molar value.
# Assays:
# [1] = test system: hepatocellular carcinoma (HepG2); test: MTT cytotoxicity assay, HepG2; format: cell-based, human; details: 72 h
# Procedure: (§1) Example 2 describes the in vitro cytotoxicity, which is indicative of the induction of cell death and/or inhibition of cellular proliferation of cancer cells, of the cyclometalated N-heterocyclic complexes on cervical epithelioid carcinoma, hepatocellular carcinoma, leukemia, nasopharyngeal carcinoma, breast carcinoma, melanoma, and lung carcinoma.
# (§2) By means of MTT assays, the cytotoxic properties of cyclometalated N-heterocyclic carbene complexes (1-25) were determined toward some established human cancer cell lines including hepatocellular carcinoma (HepG2), cervical epithelioid carcinoma (HeLa), epithelial carcinoma (KB and its camptothecin-resistant cell line KB100), non-small cell lung carcinoma (NCI-H460), leukemia (HL-60), breast carcinoma (MDA-MB-231), melanoma (B16) and nasopharyngeal carcinoma (SUNE1). […] In terms of the IC50 values, they display similar cytotoxic properties compared to the reference complexes cisplatin and camptothecin (CPT).
# [2] = test system: cervical epithelioid carcinoma (HeLa); test: MTT cytotoxicity assay, HeLa; format: cell-based, human; details: 72 h
# Procedure: as §1, §2
# [3] = test system: epithelial carcinoma (KB); test: MTT cytotoxicity assay, KB; format: cell-based, human; details: 72 h
# Procedure: as §1, §2
# [4] = test system: camptothecin-resistant cell line KB100; test: MTT cytotoxicity assay, KB100; format: cell-based, human; details: 72 h
# Procedure: as §1, §2
# [5] = test system: nasopharyngeal carcinoma (SUNE1); test: MTT cytotoxicity assay, SUNE1; format: cell-based, human; details: 72 h
# Procedure: as §1, §2
# [6] = test system: non-small cell lung carcinoma (NCI-H460); test: MTT cytotoxicity assay, NCI-H460; format: cell-based, human; details: 72 h
# Procedure: as §1, §2
# [7] = test system: breast carcinoma (MDA-MB-231); test: MTT cytotoxicity assay, MDA-MB-231; format: cell-based, human; details: 72 h, MBA-MD-231
# Procedure: as §1, §2
# melanoma (B16) = test: MTT cytotoxicity assay, B16; format: cell-based, mouse; details: 72 h
# Procedure: as §1, §2
# leukemia (HL-60) = test: MTT cytotoxicity assay, HL-60; format: cell-based, human; details: 72 h
# Procedure: as §1, §2
# [8] = test system: lung fibroblast cells (CCD-19Lu); test: MTT cytotoxicity to non-cancerous cells, CCD-19Lu; format: cell-based, human; details: 72 h, non-cancerous lung fibroblast cells CCD-19Lu
# Procedure: as §2
# Using lung fibroblast cells (CCD-19Lu), the cytotoxicity of the complexes to non-cancerous cells was also examined.
# NCI-H460 tumor = test: In vivo anti-cancer study, NCI-H460 tumor in nude mice; parameters: species or system BALB/c AnN-nu mice (nude mice); details: twice-a-week intraperitoneal injection; for inhibition of NCI-H460 tumor growth: 28 days
# Source text: For the complex 14, four-week-old male BALB/c AnN-nu mice (nude mice) were obtained from the laboratory of PearL Materia Medica Development (Shenzhen) Ltd. Tumor cells (1×10^6) resuspended in DMEM medium were implanted by subcutaneous injection on the right flank of the mice. When tumors were approximately 50 mm^3 in size, animals were randomly separated into four groups to receive treatment of twice-a-week intraperitoneal injection of 20% PET vehicle control (20% PET=12% polyethylene glycol 400; 6% ethanol; 2% Tween 20; 80% phosphate-buffered saline), complex 14 at 1 mg/kg, complex 14 at 3 mg/kg or cyclophosphamide at 30 mg/kg. Volumes of the tumor were measured every 3 to 4 days. Tumor volume was calculated by the formula: abc/2 in which a, represents tumor length; b, the width; and c, tumor thickness, as measured with a caliper and expressed in millimeter. After 28 days, the mice were sacrificed and the tumors were taken out and their weights were measured.
# SUNE1 cells = test: Apoptosis induction by flow cytometry (AV-FITC / PI); format: cell-based; details: 72 h
# Procedure: Since cancer is characterized by uncontrolled cellular proliferation, there is a considerable interest in chemotherapeutic-induced apoptosis [J. C. Reed, Nature Rev. Drug Discov. 2002, 1, 111; D. W. Nicholson, Nature 2000, 407, 810]. Using fluorescein-labeled annexin V (AV-FITC) and propidium iodide (PI), the apoptosis-inducing properties of complex 1 in SUNE1 cells were examined by flow cytometry. […] The apoptosis-inducing properties of complex 1 at a lower dose (12 μM for 72 h) were also examined. […] According to the propagation profiles (formazan absorbance A550nm vs incubation time) of the treated SUNE1 cells, there is a trend of cellular growth inhibition in the presence of complex 1 at 12 μM level. Taken together with the flow cytometric results, complex 1 appears to inhibit cancer cell proliferation at 12 μM and induce apoptosis at higher doses (i.e. 60 μM).
# The apoptosis-inducing properties of complex 14 in SUNE1 cells were also examined by flow cytometry. […] The apoptosis-inducing properties of complex 14 at a lower dose (1 μM for 72 h) were also examined. […] Thus, complex 14 could induce apoptosis at 10 μM.
# KB cells = test: Alkaline comet assay for DNA strand breaks; format: cell-based
SMILES,pIC50 [1],pIC50 [2],pIC50 [3],pIC50 [4],pIC50 [5],pIC50 [6],pIC50 [7],pIC50 (melanoma (B16)),pIC50 (leukemia (HL-60)),pIC50 [8],inhibition of NCI-H460 tumor growth (NCI-H460 tumor; 1 mg/kg),inhibition of NCI-H460 tumor growth (NCI-H460 tumor; 3 mg/kg),body-weight loss (NCI-H460 tumor; 3 or 1 mg/kg),viable cells unstained by both AV-FITC and PI (SUNE1 cells; 1 μM),SUNE1 cells in early apoptotic state (SUNE1 cells; 10 μM),"strand breaks on chromosomal DNA (comet assay) (KB cells; 1 μg/ml, 3 h, KB cells)",reversal of DNA cleavage events upon second incubation (KB cells; second incubation at 55° C. for 10 min)
CCCCn1cc[n+](C[n+]2ccn(CCCC)[c]2[Au-]23[c]4ccccc4-c4cccc([n+]42)-c2cccc[c]23)[c]1[Au-]12[c]3ccccc3-c3cccc([n+]31)-c1cccc[c]12.O=S(=O)([O-])C(F)(F)F.O=S(=O)([O-])C(F)(F)F [Complex 2],5.10,5.11,5.00,4.55,5.48,5.52,5.38,5.00,5.23,< 4.00,–,–,–,–,–,–,–
CC(C)c1cc(C(C)C)c(-n2cc[n+](-c3c(C(C)C)cc(C(C)C)cc3C(C)C)[c]2[Au-]23[c]4ccccc4-c4cccc([n+]42)-c2cccc[c]23)c(C(C)C)c1.O=S(=O)([O-])C(F)(F)F [Complex 4],5.72,5.57,5.44,5.35,5.26,5.21,5.43,5.11,5.96,4.96,–,–,–,–,–,–,–
Cc1cc(C)c(-[n+]2ccn(CC(=O)c3ccccc3)[c]2[Au-]23[c]4ccccc4-c4cccc([n+]42)-c2cccc[c]23)c(C)c1.O=S(=O)([O-])C(F)(F)F [Complex 5],5.59,5.46,5.36,5.40,5.47,5.02,4.89,5.68,5.92,4.96,–,–,–,–,–,–,–
COc1ccc(-c2cc3[n+]4c(c2)-c2cc5ccccc5c[c]2[Au-]4([c]2n(C)cc[n+]2C)[c]2cc4ccccc4cc2-3)cc1.O=S(=O)([O-])C(F)(F)F [Complex 8],6.00,6.30,6.38,4.74,6.59,6.74,6.02,6.25,6.89,6.05,–,–,–,–,–,–,–
CCCCn1cc[n+](C[n+]2ccn(CCCC)[c]2[Au-]23[c]4cc5ccccc5cc4-c4cc(-c5ccc(OC)cc5)cc([n+]42)-c2cc4ccccc4c[c]23)[c]1[Au-]12[c]3cc4ccccc4cc3-c3cc(-c4ccc(OC)cc4)cc([n+]31)-c1cc3ccccc3c[c]12.O=S(=O)([O-])C(F)(F)F.O=S(=O)([O-])C(F)(F)F [Complex 9],5.35,5.14,5.30,5.42,5.35,5.26,5.21,5.04,5.15,5.00,–,–,–,–,–,–,–
Cn1cc[n+](C)[c]1[Pt-2]12[c]3ccccc3-c3cccc([n+]31)-c1cccc[n+]12.F[P-](F)(F)(F)(F)F (stereo not shown) [Complex 11],6.51,6.48,6.18,6.21,6.29,6.24,5.82,5.51,6.24,5.24,–,–,–,–,–,–,–
CCn1cc[n+](CC)[c]1[Pt-2]12[c]3ccccc3-c3cccc([n+]31)-c1cccc[n+]12.F[P-](F)(F)(F)(F)F (stereo not shown) [Complex 12],5.89,6.32,6.05,6.11,6.49,6.24,5.92,5.74,6.28,5.68,–,–,–,–,–,–,–
CCCn1cc[n+](CCC)[c]1[Pt-2]12[c]3ccccc3-c3cccc([n+]31)-c1cccc[n+]12.F[P-](F)(F)(F)(F)F (stereo not shown) [Complex 13],5.96,7.30,6.85,6.89,6.80,6.74,6.55,6.38,6.25,4.92,–,–,–,–,–,–,–
CCCCn1cc[n+](CCCC)[c]1[Pt-2]12[c]3ccccc3-c3cccc([n+]31)-c1cccc[n+]12.F[P-](F)(F)(F)(F)F (stereo not shown) [Complex 14],6.11,7.30,7.40,7.10,6.85,7.05,7.40,6.82,7.10,5.00,significantly less effective,55%,no significant weight loss,~90%,46.4%,–,–
CCCC[n+]1ccn(Cn2cc[n+](CCCC)[c]2[Pt-2]23[c]4ccccc4-c4cccc([n+]42)-c2cccc[n+]23)[c]1[Pt-2]12[c]3ccccc3-c3cccc([n+]31)-c1cccc[n+]12.F[P-](F)(F)(F)(F)F.F[P-](F)(F)(F)(F)F (stereo not shown) [Complex 15],5.03,5.10,–,–,5.19,–,–,–,–,4.40,–,–,–,–,–,–,–
CCCC[n+]1ccn(CCCn2cc[n+](CCCC)[c]2[Pt-2]23[c]4ccccc4-c4cccc([n+]42)-c2cccc[n+]23)[c]1[Pt-2]12[c]3ccccc3-c3cccc([n+]31)-c1cccc[n+]12.F[P-](F)(F)(F)(F)F.F[P-](F)(F)(F)(F)F (stereo not shown) [Complex 16],5.15,5.41,–,–,5.25,–,–,–,–,4.57,–,–,–,–,–,–,–
Cc1cc(C)c(-[n+]2ccn(CCCO)[c]2[Pt-2]23[c]4ccccc4-c4cccc([n+]42)-c2cccc[n+]23)c(C)c1.F[P-](F)(F)(F)(F)F (stereo not shown) [Complex 23],6.11,6.32,–,–,6.03,–,–,–,–,5.12,–,–,–,–,–,–,–
CCCn1cc[n+](CCC)[c]1[Pt-2]12[c]3ccccc3-c3cccc([n+]31)-c1cc3ccccc3c[n+]12.F[P-](F)(F)(F)(F)F (stereo not shown) [Complex 24],6.06,6.26,–,–,6.15,–,–,–,–,4.92,–,–,–,–,–,–,–
CCCCn1cc[n+](CCO)[c]1[Pt-2]12[c]3ccccc3-c3cccc([n+]31)-c1cc3ccccc3c[n+]12.F[P-](F)(F)(F)(F)F (stereo not shown) [Complex 25],6.17,6.35,–,–,6.06,–,–,–,–,4.96,–,–,–,–,–,–,–
"N.N.[Cl][Pt][Cl] [cisplatin, reference compound]",4.84,4.83,–,–,5.62,–,–,–,–,< 4.00,–,–,–,–,–,–,–
COc1cccc2c1C(=O)c1c(O)c3c(c(O)c1C2=O)C[C@@](O)(C(=O)CO)C[C@@H]3O[C@H]1C[C@H](N)[C@H](O)[C@H](C)O1 [doxorubicin],–,–,–,–,–,–,–,–,–,–,–,–,–,–,–,induced extensive strand breaks on chromosomal DNA,not
